This is an account of results in ChEMBL document CHEMBL4014287, “Jesridonin in combination with paclitaxel demonstrates synergistic anti-tumor activity in human esophageal carcinoma cells” (Bioorg Med Chem Lett, 2017).

The test system of data set [1] is ECa-109 cell line. As to the kind of experiment: Cytotoxicity against human EC109 cells assessed as reduction in cell viability after 24 hrs by MTT assay. Format: functional, cell-based. (In general: Formazan colour is commonly taken as a measure of viable cells.)
For data set [2], the system named is ECa-109 cell line. Description: Cytotoxicity against human EC109 cells assessed as combination index at 10 uM in presence of 10 nM paclitaxel. Format: functional.
The test system of data set [3] is ECa-109 cell line. Description: Cytotoxicity against human EC109 cells assessed as combination index at 15 uM in presence of 10 nM paclitaxel. The format is functional.
In data set [4] the test system is ECa-109 cell line. Description: Cytotoxicity against human EC109 cells assessed as combination index at 30 uM in presence of 5 nM paclitaxel. The format is functional.
Data set [5] has as its system ECa-109 cell line. As to the kind of experiment: Induction of apoptosis in human EC109 cells assessed as viable cells at 15 uM after 24 hrs by Annexin V-FITC/propidium iodide staining based flow cytometry (reference value: 96.1%). Format: functional. The conditions noted are these: ECa-109, 24 h, read-out: Activity. (In general: Flow cytometry measures light scatter and fluorescence of single cells or particles in a stream.)

Data set [6] relates to ECa-109 cell line. As to the kind of experiment: Induction of apoptosis in human EC109 cells assessed as viable cells at 15 uM after 24 hrs in presence of paclitaxel by Annexin V-FITC/propidium iodide staining based flow cytometry (reference value: 96.1%). The format is functional. The settings on record: ECa-109, 24 h, read-out: Activity.
The test system of data set [7] is ECa-109 cell line. Description: Induction of apoptosis in human EC109 cells assessed as late apoptotic cells at 15 uM after 24 hrs in presence of paclitaxel by Annexin V-FITC/propidium iodide staining based flow cytometry (reference value: 1%). The format is functional.
In data set [8] the test system is ECa-109 cell line. Description: Induction of apoptosis in human EC109 cells assessed as necrotic cells at 15 uM after 24 hrs in presence of paclitaxel by Annexin V-FITC/propidium iodide staining based flow cytometry (reference value: 1.6 %). Format: functional.
Data set [9] has as its system ECa-109 cell line. As to the kind of experiment: Induction of apoptosis in human EC109 cells assessed as increase in Bak level at 15 uM in presence of 5 nM paclitaxel by Western blot method. The format is functional, cell-based. Background: Immunoblotting shows a protein as a band on a membrane.
The test system of data set [10] is ECa-109 cell line. Description: Induction of apoptosis in human EC109 cells assessed as decrease in pro-caspase 3 expression at 15 uM in presence of 5 nM paclitaxel by Western blot method. Format: functional, cell-based.
Data set [11] has as its system ECa-109 cell line. Description: Induction of apoptosis in human EC109 cells assessed as decrease in pro-caspase 9 expression at 15 uM in presence of 5 nM paclitaxel by Western blot method. Format: functional, cell-based.
Data set [12] has as its system ECa-109 cell line. Description: Antitumor activity against human EC109 cells xenografted in nude mouse assessed as reduction in tumor size at 10 mg/kg in presence of 5 mg/kg paclitaxel measured after 21 days. Format: functional, organism-based.
In data set [13] the test system is ECa-109 cell line. Description: Antitumor activity against human EC109 cells xenografted in nude mouse assessed as reduction in tumor volume at 10 mg/kg in presence of 5 mg/kg paclitaxel measured after 21 days. The format is functional, organism-based.
The test system of data set [14] is ECa-109 cell line. Description: Antitumor activity against human EC109 cells xenografted in nude mouse assessed as increase in apoptotic cells at 10 mg/kg in presence of paclitaxel measured after 21 days by TUNEL assay. Format: functional, organism-based.
Data set [15] concerns Mus musculus. As to the kind of experiment: Hepatotoxicity in nude mouse xenografted with human EC109 cells assessed as change in serum ALP level at 10 mg/kg in presence of paclitaxel measured after 21 days. The settings on record: in vivo, 504 h. The format is toxicity, organism-based.
Data set [16] deals with Mus musculus. As to the kind of experiment: Hepatotoxicity in nude mouse xenografted with human EC109 cells assessed as change in serum ALT level at 10 mg/kg in presence of paclitaxel measured after 21 days. The format is toxicity, organism-based. The conditions noted are these: in vivo, 504 h.
The test system of data set [17] is Mus musculus. Description: Hepatotoxicity in nude mouse xenografted with human EC109 cells assessed as change in serum AST level at 10 mg/kg in presence of paclitaxel measured after 21 days. The format is toxicity, organism-based. The conditions noted are these: in vivo, 504 h.
Data set [18] deals with Mus musculus. As to the kind of experiment: Toxicity in nude mouse xenografted with human EC109 cells assessed as skin ulceration at 10 mg/kg measured after 21 days. The format is organism-based. The conditions noted are these: in vivo, 504 h.
In data set [19] the test system is Mus musculus. As to the kind of experiment: Toxicity in nude mouse xenografted with human EC109 cells assessed as pathological changes at 10 mg/kg measured after 21 days. The conditions noted are these: in vivo, 504 h. The format is organism-based.

Active and inactive are the calls of the source. The rule behind the calls is not given here.

On to `C=C1C(=O)[C@@]23[C@@H]4OC(c5ccc(Cl)cc5)O[C@@]25OC[C@@]2([C@H]([C@@H]5O)C(C)(C)CC[C@@H]2O)[C@@H]3CC[C@@H]14` (some centres undefined), for which the Activity result was “Dose-dependent effect” in data set [1]; 9.7% in data set [7]; 1.5% in data set [8]; “Non-Toxic” in [15]; “Non-Toxic” in data set [16]; “Non-Toxic” in data set [17]. In addition, the Activity entry in data set [18] and in data set [19] was “Non-Toxic” each time. In addition, the CI in data set [2] is 0.43; in data set [3], 0.68; in data set [4], 0.93. For the same compound, the values for the viability at 15 µM in data set [5] and in data set [6] were 73.1% and 52.7%, respectively. Further, the outcome in [9], in data set [10], in data set [11], in data set [12], in data set [13] and in [14] was Active.
